Reference: article PMC9719519, “Non-classical ferroptosis inhibition by a small molecule targeting PHB2” (Nature Communications, 2022)

Tests used:
Assay in all cases: biochemical
Set-up in all cases: Eurofins recombinant human kinase profiling, remaining kinase activity as % of control, 10 uM ATP
Conditions in all cases: ATP 10 uM; read-out: %Ctrl@10 μM
[1] = molecular target: GRK6(h) (Homo sapiens, UniProt P43250)
How it was run: (§1)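 Activity measured in a commercial panel of 401 recombinant human protein kinases run as a kinase profiling service.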

[2] = molecular target: Haspin(h) (Homo sapiens, UniProt Q8TF76)
How it was run: as §1

[3] = molecular target: T1, ICK(h) (Homo sapiens, UniProt Q9UPZ9)
T1 construct: gene CILK1
How it was run: as §1

[4] = molecular target: T2, Pim-1(h) (Homo sapiens, UniProt P11309)
T2 construct: gene PIM1
How it was run: as §1

[5] = molecular target: T3, PDGFRα(V561D)(h) (Homo sapiens, UniProt P16234, V561D)
T3 construct: gene PDGFRA
How it was run: as §1

[6] = molecular target: SIK2(h) (Homo sapiens, UniProt Q9H0K1)
How it was run: as §1

[7] = molecular target: T4, GCK(h) (Homo sapiens, UniProt Q12851)
T4 construct: gene MAP4K2
How it was run: as §1

[8] = molecular target: Lck(h) (Homo sapiens, UniProt P06239)
How it was run: as §1

[9] = molecular target: STK32B(h) (Homo sapiens, UniProt Q9NY57)
How it was run: as §1

[10] = molecular target: T5, CaMKI(h) (Homo sapiens, UniProt Q14012)
T5 construct: gene CAMK1
How it was run: as §1

[11] = molecular target: TTBK2(h) (Homo sapiens, UniProt Q6IQ55)
How it was run: as §1

[12] = molecular target: T6, ZAP-70(h) (Homo sapiens, UniProt P43403)
T6 construct: gene ZAP70
How it was run: as §1

[13] = molecular target: T7, MST3(h) (Homo sapiens, UniProt Q9Y6E0)
T7 construct: gene STK24
How it was run: as §1

[14] = molecular target: PAK3(h) (Homo sapiens, UniProt O75914)
How it was run: as §1

[15] = molecular target: mTOR/FKBP12(h) (Homo sapiens, UniProt P42345)
How it was run: as §1

[16] = molecular target: T8, c-RAF(h) (Homo sapiens, UniProt P04049)
T8 construct: gene RAF1
How it was run: as §1

[17] = molecular target: STK25(h) (Homo sapiens, UniProt O00506)
How it was run: as §1

[18] = molecular target: T9, MLCK(h) (Homo sapiens, UniProt Q15746)
T9 construct: gene MYLK
How it was run: as §1

[19] = molecular target: DDR1(h) (Homo sapiens, UniProt Q08345)
How it was run: as §1

[20] = molecular target: T10, PhKγ1(h) (Homo sapiens, UniProt Q16816)
T10 construct: gene PHKG1
How it was run: as §1

[21] = molecular target: T11, CK2α2(h) (Homo sapiens, UniProt P19784)
T11 construct: gene CSNK2A2
How it was run: as §1

[22] = molecular target: T12, MRCKα(h) (Homo sapiens, UniProt Q5VT25)
T12 construct: gene CDC42BPA
How it was run: as §1

[23] = molecular target: T13, MEKK2(h) (Homo sapiens, UniProt Q9Y2U5)
T13 construct: gene MAP3K2
How it was run: as §1

T5 sequence (Q14012 whole entry): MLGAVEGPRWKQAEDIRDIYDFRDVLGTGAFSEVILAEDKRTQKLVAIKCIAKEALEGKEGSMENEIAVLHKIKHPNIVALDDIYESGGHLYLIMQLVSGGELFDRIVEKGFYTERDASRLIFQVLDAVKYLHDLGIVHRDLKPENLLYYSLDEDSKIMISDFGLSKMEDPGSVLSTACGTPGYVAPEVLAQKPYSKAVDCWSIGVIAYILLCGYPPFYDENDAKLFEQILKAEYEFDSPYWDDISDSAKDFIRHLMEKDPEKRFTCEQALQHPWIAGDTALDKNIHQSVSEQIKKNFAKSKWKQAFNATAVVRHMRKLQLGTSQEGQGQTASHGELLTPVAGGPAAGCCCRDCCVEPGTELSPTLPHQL
T6 sequence (P43403 whole entry): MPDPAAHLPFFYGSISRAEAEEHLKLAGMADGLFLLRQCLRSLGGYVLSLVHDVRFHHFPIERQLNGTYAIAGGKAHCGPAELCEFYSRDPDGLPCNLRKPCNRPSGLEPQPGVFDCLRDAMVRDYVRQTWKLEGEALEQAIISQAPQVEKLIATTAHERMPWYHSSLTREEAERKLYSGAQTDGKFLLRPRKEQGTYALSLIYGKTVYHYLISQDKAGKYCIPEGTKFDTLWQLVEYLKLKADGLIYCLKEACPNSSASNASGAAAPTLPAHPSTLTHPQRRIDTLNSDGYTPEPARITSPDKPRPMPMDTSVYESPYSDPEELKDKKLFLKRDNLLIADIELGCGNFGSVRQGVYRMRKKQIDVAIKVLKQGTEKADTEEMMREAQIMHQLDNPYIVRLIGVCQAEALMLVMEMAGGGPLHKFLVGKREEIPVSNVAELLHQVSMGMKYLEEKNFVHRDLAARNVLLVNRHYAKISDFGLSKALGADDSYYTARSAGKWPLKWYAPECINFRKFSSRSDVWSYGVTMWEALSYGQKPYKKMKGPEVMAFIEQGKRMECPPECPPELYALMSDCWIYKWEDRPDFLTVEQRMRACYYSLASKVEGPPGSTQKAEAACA
T13 sequence (Q9Y2U5 whole entry): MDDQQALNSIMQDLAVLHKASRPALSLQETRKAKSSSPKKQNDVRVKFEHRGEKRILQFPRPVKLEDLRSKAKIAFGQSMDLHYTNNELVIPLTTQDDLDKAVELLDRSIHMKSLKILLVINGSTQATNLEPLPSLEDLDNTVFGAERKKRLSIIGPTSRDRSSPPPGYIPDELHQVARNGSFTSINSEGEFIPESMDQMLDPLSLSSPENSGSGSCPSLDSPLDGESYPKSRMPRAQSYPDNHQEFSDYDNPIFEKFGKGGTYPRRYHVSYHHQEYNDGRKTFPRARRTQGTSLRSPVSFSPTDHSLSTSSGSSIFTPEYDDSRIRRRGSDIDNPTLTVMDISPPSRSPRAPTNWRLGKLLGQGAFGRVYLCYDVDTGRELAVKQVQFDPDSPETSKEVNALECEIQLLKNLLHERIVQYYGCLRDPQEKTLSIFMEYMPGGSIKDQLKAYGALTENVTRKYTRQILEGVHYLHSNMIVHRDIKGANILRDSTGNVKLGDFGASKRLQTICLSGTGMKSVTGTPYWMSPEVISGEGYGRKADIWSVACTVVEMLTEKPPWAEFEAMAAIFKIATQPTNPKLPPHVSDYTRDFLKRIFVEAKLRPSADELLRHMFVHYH
T4 sequence (Q12851 whole entry): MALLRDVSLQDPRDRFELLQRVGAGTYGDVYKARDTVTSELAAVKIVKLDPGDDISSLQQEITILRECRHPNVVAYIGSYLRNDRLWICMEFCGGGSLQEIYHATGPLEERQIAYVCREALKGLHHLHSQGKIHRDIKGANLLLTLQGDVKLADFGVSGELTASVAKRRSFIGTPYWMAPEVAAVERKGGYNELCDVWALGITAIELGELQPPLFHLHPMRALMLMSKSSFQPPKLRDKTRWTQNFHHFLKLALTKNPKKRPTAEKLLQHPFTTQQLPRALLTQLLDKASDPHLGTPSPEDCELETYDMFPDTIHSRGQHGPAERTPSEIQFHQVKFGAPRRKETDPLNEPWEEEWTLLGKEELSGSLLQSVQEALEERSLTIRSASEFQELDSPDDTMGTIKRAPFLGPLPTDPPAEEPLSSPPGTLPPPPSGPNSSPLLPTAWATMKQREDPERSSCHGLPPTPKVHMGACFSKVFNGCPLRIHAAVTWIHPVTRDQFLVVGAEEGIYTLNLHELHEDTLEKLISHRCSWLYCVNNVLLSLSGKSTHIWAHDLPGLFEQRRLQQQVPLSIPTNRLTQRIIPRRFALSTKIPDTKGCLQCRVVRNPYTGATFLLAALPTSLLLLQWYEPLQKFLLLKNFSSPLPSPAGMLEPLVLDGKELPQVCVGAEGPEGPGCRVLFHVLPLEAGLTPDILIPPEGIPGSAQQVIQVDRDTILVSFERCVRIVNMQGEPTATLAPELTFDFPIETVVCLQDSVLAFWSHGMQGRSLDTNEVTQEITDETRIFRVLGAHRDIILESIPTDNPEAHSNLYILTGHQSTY
Chain of STK25(h) (O00506 whole entry): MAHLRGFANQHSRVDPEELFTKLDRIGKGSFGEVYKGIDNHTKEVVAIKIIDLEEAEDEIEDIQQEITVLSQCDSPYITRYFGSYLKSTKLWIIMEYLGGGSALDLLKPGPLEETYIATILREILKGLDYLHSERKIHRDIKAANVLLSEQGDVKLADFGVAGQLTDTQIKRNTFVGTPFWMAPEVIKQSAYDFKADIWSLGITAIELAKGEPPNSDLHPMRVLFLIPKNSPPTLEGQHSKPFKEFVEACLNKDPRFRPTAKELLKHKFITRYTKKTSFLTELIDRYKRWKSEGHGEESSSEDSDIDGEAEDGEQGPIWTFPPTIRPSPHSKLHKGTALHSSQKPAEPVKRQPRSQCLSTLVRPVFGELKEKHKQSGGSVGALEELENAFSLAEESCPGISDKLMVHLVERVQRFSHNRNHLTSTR
T8 sequence (P04049 whole entry): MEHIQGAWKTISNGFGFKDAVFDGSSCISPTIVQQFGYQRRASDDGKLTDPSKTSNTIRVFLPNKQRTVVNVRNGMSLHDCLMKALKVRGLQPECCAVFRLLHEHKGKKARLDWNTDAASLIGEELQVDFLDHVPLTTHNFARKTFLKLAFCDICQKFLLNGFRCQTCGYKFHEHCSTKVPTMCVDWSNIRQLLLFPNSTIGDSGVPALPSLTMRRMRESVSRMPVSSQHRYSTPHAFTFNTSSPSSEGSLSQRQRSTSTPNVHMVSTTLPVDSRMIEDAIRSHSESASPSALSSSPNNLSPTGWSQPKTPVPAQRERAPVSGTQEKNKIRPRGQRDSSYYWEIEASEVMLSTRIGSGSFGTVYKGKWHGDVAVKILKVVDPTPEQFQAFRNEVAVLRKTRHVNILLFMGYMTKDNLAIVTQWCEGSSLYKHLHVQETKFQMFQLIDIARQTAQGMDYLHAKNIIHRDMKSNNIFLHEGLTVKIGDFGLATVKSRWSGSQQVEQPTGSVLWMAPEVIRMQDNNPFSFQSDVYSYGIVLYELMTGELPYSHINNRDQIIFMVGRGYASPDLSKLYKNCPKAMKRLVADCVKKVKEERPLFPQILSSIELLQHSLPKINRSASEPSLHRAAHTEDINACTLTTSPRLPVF
Chain of PAK3(h) (O75914 whole entry): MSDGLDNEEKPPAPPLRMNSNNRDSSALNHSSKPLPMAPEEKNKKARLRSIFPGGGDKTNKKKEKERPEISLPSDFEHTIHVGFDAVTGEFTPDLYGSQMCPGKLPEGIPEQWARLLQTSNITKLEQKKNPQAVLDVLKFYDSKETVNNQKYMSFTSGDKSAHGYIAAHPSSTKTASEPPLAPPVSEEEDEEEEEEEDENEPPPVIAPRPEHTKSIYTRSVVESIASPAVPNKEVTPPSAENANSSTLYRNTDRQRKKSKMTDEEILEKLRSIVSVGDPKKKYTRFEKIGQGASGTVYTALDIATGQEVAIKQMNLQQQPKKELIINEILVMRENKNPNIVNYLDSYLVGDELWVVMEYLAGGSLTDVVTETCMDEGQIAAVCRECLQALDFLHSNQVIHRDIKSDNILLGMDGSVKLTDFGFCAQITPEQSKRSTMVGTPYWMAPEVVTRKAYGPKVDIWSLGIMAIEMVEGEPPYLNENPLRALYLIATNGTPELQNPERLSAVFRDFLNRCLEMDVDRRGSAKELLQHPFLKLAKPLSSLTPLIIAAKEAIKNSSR
Chain of DDR1(h) (Q08345 whole entry): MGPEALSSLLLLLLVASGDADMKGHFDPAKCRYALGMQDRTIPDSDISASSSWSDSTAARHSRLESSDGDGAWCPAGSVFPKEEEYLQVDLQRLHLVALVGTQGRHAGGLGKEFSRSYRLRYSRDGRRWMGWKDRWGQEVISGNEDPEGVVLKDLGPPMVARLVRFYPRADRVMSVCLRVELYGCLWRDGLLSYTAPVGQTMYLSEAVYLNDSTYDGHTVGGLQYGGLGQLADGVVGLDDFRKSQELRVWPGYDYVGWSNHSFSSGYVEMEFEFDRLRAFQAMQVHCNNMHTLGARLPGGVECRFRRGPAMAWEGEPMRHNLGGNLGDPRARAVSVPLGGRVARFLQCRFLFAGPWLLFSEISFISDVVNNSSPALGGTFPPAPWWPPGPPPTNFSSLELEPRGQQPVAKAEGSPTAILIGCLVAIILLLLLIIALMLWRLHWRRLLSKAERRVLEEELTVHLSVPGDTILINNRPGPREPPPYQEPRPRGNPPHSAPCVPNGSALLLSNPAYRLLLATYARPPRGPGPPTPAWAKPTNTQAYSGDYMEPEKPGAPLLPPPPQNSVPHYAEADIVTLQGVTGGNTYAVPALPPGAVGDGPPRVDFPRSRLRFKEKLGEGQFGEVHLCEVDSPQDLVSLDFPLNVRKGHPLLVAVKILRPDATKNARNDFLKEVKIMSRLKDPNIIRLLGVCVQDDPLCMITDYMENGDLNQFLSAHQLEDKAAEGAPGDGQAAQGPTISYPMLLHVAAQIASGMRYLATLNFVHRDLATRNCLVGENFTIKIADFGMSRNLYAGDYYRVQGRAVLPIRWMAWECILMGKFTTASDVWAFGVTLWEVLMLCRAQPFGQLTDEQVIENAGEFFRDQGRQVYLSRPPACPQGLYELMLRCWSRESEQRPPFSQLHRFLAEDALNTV

Work on C1=C(c2nc(-c3cnn(C4CCNCC4)c3)cn3cc(-c4ccccc4)nc23)CCOC1 [YL-939] yielded a remaining activity at 10 µM [1] of 87%, a remaining activity at 10 µM [2] of 100% and a remaining activity at 10 µM [3] of 92%. For the same compound, the remaining activity at 10 µM [4] was 68%, the remaining activity at 10 µM [5] was 101% and the remaining activity at 10 µM [6] was 94%. For the same compound, the remaining activity at 10 µM [7] was 76%, the remaining activity at 10 µM [8] was 122% and the remaining activity at 10 µM [9] was 105%. The remaining activity at 10 µM [10] was 81%, the remaining activity at 10 µM [11] was 87% and the remaining activity at 10 µM [12] was 97%. It also gave a remaining activity at 10 µM [13] of 97%, a remaining activity at 10 µM [14] of 70% and a remaining activity at 10 µM [15] of 88%. The remaining activity at 10 µM [16] was 76%, the remaining activity at 10 µM [17] was 82% and the remaining activity at 10 µM [18] was 60%. For the same compound, the remaining activity at 10 µM [19] was 98%, the remaining activity at 10 µM [20] was 85% and the remaining activity at 10 µM [21] was 98%. The remaining activity at 10 µM [22] was 92% and the remaining activity at 10 µM [23] was 100%.
